Patent publication US10632106B2, “Methods of cancer treatment with 2-(1′H-Indole-3′-carbonyl)-thiazole-4-carboxylic acid methyl ester” (Ariagen, Inc., priority 2009, dated 2020)

What was measured:
Assay type in all cases: in vivo
[1] = system: SW116 (human colon cancer) xenografts; assay: SW116 xenograft growth inhibition; details: ITE 100-200 mg/kg i.p. once daily
Method: (§1) All the procedures related to animal handling, care, and the treatment in the study were performed following guidelines of KeyGen Biotechn Co., Ltd. (Nanjing, China), a contract research organization we hired, based on the guidance of the Association for Assessment and Accreditation of Laboratory Animal Care (AAALAC). Animals were checked for any effects of tumor growth and drug treatment on normal behavior such as mobility, food and water consumption, body weight gain/loss (bodyweights were measured every two days), eye/hair matting, and any other abnormal effect. Death and observed clinical signs were recorded. Individual animals with a tumor volume exceeding 3,000 mm^3 or animals of a group with a mean tumor volume exceeding 2,000 mm^3 were euthanized. In addition, animals showing signs of severe distress and/or pain or losing the capability of accessing adequate food or water were humanely sacrificed.
(§2) Cell lines HCT116, Siha, MFC were cultured in DMEM medium (high glucose) supplemented with 10% fetal bovine serum (FBS), SW116 and T24 in RPMI-1640 medium with 10% FBS, M14 and A375 in DMEM medium (high glucose) with 10% calf serum (CS), SGC7901 and Ketr-3 in RPMI-1640 medium with 10% CS, and CFPAC-1 in IMDM medium with 10% FBS. All of the cells were cultured, in the presence of 100 U/ml penicillin and 100 μg/ml streptomycin, at 37° C. in an atmosphere of 5% CO2 in air. […] The cells growing in an exponential phase were harvested and counted for tumor inoculation. Cell lines 5180 and U14 were maintained in ascites (peritoneal cavity fluid) of mice and were harvested and counted for tumor inoculation. […]
(§3) Tumor volume was measured every two days in two dimensions using a caliper and the volume was calculated with a formula of: V=0.5 a×b^2, where a and b are the long and short diameter (in mm) of a tumor, respectively. […] The TGD was calculated as: TGD=T−C, where T was the time (in days) required for tumors in a drug treated group to reach a predetermined mean tumor volume and C the time (in days) in the control group to reach the same volume. […]

[2] = system: S180 (mouse soft tissue cancer/sarcoma) homografts; assay: S180 homograft (syngeneic) growth inhibition in ICR mice; details: ITE 200 mg/kg i.p. once daily
Method: as §1, §2, §3

[3] = system: MFC (mouse stomach cancer) homografts; assay: MFC homograft (syngeneic) growth inhibition in 615 mice; details: ITE 200-300 mg/kg i.p. once daily
Method: as §1, §2, §3

[4] = end of therapy relative to beginning

COC(=O)c1csc(C(=O)c2c[nH]c3ccccc23)n1 [ITE, 2-(1′H-indole-3′-carbonyl)-thiazole-4-carboxylic acid methyl ester]
TGD ([1]; TGD at Vol. 1,000): 9 days | TGI (%) ([1]; TGI at day 20, TGI=(1−ΔT/ΔC)×100%): 67% | Weight Loss [1, 4]: 15% | TGD ([2]; TGD at Vol. 2,000): 1.5 days | TGI (%) ([2]; TGI at day 8, TGI=(1−ΔT/ΔC)×100%): 33% | Weight Loss [2, 4]: 9% | TGD ([3]; TGD at Vol. 2,000): 9 days | TGI (%) ([3]; TGI at day 10, TGI=(1−ΔT/ΔC)×100%): 70% | Weight Loss [3, 4]: 16%
